Data reported in article PMC4337230 (The journal of physical chemistry. B, 2010).

Biological target: T1, Lysine 2,3-aminomutase (LAM) (Clostridium subterminale, UniProt Q9XBQ8)
T1 sequence (Q9XBQ8 1-416): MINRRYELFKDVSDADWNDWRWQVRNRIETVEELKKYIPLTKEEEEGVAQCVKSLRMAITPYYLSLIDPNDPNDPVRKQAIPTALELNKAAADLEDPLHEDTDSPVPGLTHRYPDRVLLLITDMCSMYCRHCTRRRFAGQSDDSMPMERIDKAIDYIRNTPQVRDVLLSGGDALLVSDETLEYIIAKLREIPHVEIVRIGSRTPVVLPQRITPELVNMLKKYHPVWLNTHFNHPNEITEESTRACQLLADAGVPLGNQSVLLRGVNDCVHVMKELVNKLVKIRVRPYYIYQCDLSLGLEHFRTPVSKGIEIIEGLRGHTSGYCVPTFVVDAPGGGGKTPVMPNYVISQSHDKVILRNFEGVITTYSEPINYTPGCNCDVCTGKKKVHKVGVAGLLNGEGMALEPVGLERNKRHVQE
Assay: activation of L-alanine […],3-aminomutation, PITC-HPLC
Type: biochemical
Settings: 200000 µM; activator; 0.2 M L-alanine, 0.16 mM SAM, pH 8.0, 37 °C, anaerobic

SMILES: CN [methylamine]
- fold acceleration at 0.2 M: 27 fold
